The values that follow come from patent US20260159481A1, “INDOLE DERIVATIVE WITH SUBSTITUENT AND PHARMACEUTICAL USE” (MITOIMMUNE THERAPEUTICS INC., priority 2023, published 2026).

A value given as a limit tells only on which side of the number the result lay.

Data set [1] concerns adrenal medullary cells (PC-12). In words: Protective effect against cell death due to RSL3 (LDH release), PC-12. The data set is classed as cell-based. The settings on record: Rattus norvegicus, RSL3 0.3 μM, 24 hours. On the procedure:
(§1) To confirm cell death protection effects on cardiac cells, adrenal medullary cells, renal fibroblasts, retinal epithelial cells, lung epithelial cells, renal proximal tubular epithelial cells, hippocampal neurons and fibroblasts, each type of cells were seeded at 4×10^3 to 1.2×10^4 cells/well in a 96-well plate and cultured for 18 to 24 hours. The example compounds were diluted to have the final concentration of 0.001, 0.003, 0.01, 0.3, 1, 3, and 10 μM, respectively, and then added to different wells and cultured for 15 to 20 minutes. […] To confirm the cell death protection effect of the example compounds, the degree of extracellular secretion of lactate dehydrogenase (LDH) was measured using a cytotoxicity LDH assay kit [Dojindo; CK12]. Briefly, at the end of 24-hour treatment of each type of cells with RSL3, 70 μL of the supernatant was taken from the 96-well plate where the cells were cultured and transferred to a new 96-well plate. The assay buffer included in the kit was added at 70 μL/well (equal to that of the sample) and the plate was covered with foil to block light and allowed to react for 15 to 20 minutes at room temperature. While observing a color change of the sample, 35 µL/well of a stop solution was added, an absorbance at 490 nm was measured using an iD3 spectrophotometer, and an EC50 value was calculated.

The subject of data set [2] is renal proximal tubular epithelial cells (HK2). The data set can be described thus: Protective effect against cell death due to RSL3 (LDH release), HK2. The settings on record: Epithelial cell, RSL3 0.3 μM, 24 hours. Type of data set: cell-based. As for the experimental part: as §1
Background: LDH in the medium is a marker of cell lysis.

The subject of data set [3] is cardiac cells (H9C2). The data set can be described thus: Protective effect against cell death due to RSL3 (LDH release), H9C2. The data set is classed as cell-based. The settings on record: Rattus norvegicus, RSL3 0.5 μM, 24 hours. On the procedure: as §1
In data set [4] the test system is cardiac cells (H9C2). In words: Protective effect against t-BHP-induced cell death in cardiac cells (LDH release). The settings on record: Rattus norvegicus, t-BHP 400 PM, 2 hours, read-out: EC50, protective effect against cell death due to t-BHP induction. The data set is classed as cell-based. On the procedure:
To confirm a protective effect on cardiac cells, H9C2 cells were seeded at 1.5×10^4 cells/well in a 96-well plate and cultured for 24 hours. The example compounds were diluted to have the final concentration of 0.001, 0.01, 0.03, 0.1, 0.3, 1, 3, 10, and 30 PM, respectively, and then added to different wells, and the resulting cells were cultured for 15 to 20 minutes. Tert-butyl hydroperoxide (t-BHP) was treated to have the final concentration of 400 PM, and the resulting cells were cultured for 2 hours. To confirm the cell death protection effect of each compound, the degree of extracellular secretion of lactate dehydrogenase (LDH) was measured using a cytotoxicity LDH assay kit [Dojindo; CK12]. Briefly, after 2 hours of t-BHP treatment on the cells, 70 μL of the supernatant was taken from the 96-well plate where the cells were cultured and transferred to a new 96-well plate. The assay buffer included in the kit was added at 70 μL/well (equal to that of the sample) and the plate was covered with foil to block light and allowed to react for 15 minutes at room temperature. While observing a color change of each sample, 35 μL/well of a stop solution was added, an absorbance at 490 nm was measured using an iD3 spectrophotometer, and an EC50 value was calculated.

Data set [5] deals with hippocampal neurons (HT-22). In words: Protective effect against cell death due to RSL3 (LDH release), HT-22. Type of data set: cell-based. The settings on record: Mus musculus, RSL3 0.3 μM, 24 hours. On the procedure: as §1
Data set [6] has as its system renal fibroblasts (NRK-49F). The data set can be described thus: Protective effect against cell death due to RSL3 (LDH release), NRK-49F. Type of data set: cell-based. The settings on record: Rattus norvegicus, RSL3 3 μM, 24 hours. As for the experimental part: as §1
For data set [7], the system named is retinal epithelial cells (ARPE-19). In words: Protective effect against cell death due to RSL3 (LDH release), ARPE-19. The data set is classed as cell-based. The settings on record: Homo sapiens, RSL3 0.3 μM, 24 hours. As for the experimental part: as §1
In data set [8] the test system is fibroblasts (NIH/3T3). The data set can be described thus: Protective effect against cell death due to RSL3 (LDH release), NIH/3T3. The data set is classed as cell-based. The settings on record: Mus musculus, NIH3T3, RSL3 3 μM, 24 hours. As for the experimental part:
as §1

Data set [9] relates to lung epithelial cells (MLE-12). In words: Protective effect against cell death due to RSL3 (LDH release), MLE-12. Type of data set: cell-based. The settings on record: MLE12, RSL3 1 μM, 24 hours. As for the experimental part: as §1
Data set [10] in a line: Pharmacokinetics in plasma after oral administration to ICR mice. The data set is classed as in vivo. The settings on record: oral 10 mg/kg. As for the experimental part:
Pharmacokinetic parameters may include the maximum plasma concentration (Cmax), the time to reach the maximum plasma concentration (Tmax), the area under the plasma concentration-time curve (AUCinf), and a half-life (t1/2).
Example Compound 27 was orally administered to ICR mice at a dose of 10 mg/kg. Drug concentrations in the plasma of mice were measured by HPLC-MS/MS spectroscopy 0.5, 1, 2, 4, 8, or 24 hours after administration.
The comparative example compound was orally administered to ICR mice at a dose of 10 mg/kg. The drug concentrations in the plasma of the mice were measured by HPLC-MS/MS 0.5, 1, 2, 4, 8, or 24 hours after administration.

As for `O=C(NC1CC1)c1cc(NCc2ccncc2)c2[nH]c(-c3ccccc3)cc2c1` [Example 8, N-cyclopropyl-2-phenyl-7-((pyridin-4-ylmethyl)amino)-1H-indole-5-carboxamide], the 50% effective concentration (EC50) (in general, the midpoint of the concentration-response curve) in data set [1] is 100 to 1000 nM; in [2], 100 to 1000 nM; in data set [3] it was 100 to 1000 nM; in data set [4], at most 300 nM; in data set [5] it was over 1000 nM; in [6], 100 to 1000 nM. Further, the results for the EC50 in data set [7], in [8] and in [9] were at most 100 nM, 100 to 1000 nM and 100 to 1000 nM, respectively.
Take `CCN(CC)C(=O)Cc1cc(NCc2ccccc2)c2[nH]c(-c3ccccc3)cc2c1` [Example 14, 2-(7-(benzylamino)-2-phenyl-1H-indol-5-yl)-N,N-diethylacetamide]: the EC50 in data set [1] is at most 100 nM; in [2], at most 100 nM; in data set [3] it was at most 100 nM; in data set [4], 300 to 1000 nM; in data set [5] it was 100 to 1000 nM; in data set [6], at most 100 nM. Moreover, the EC50 is at most 100 nM in data set [7], 100 to 1000 nM in data set [8] and at most 100 nM in data set [9].
Take `CCNS(=O)(=O)c1cc(NC2CCCC2)c2[nH]c(-c3ccccc3)cc2c1` [Example 22, 7-(cyclopentylamino)-N-ethyl-2-phenyl-1H-indole-5-sulfonamide]: the half-maximal effective concentration (EC50) in [1] is 100 to 1000 nM; in [2], at most 100 nM; in data set [3] it was at most 100 nM; in [4], 300 to 1000 nM; in data set [5], 100 to 1000 nM; in data set [6], at most 100 nM. Besides, the half-maximal effective concentration (EC50) in [7] is at most 100 nM; in data set [8] it was 100 to 1000 nM; in data set [9] it was 100 to 1000 nM.
On to `OCCOCc1cc(NC2CCOCC2)c2[nH]c(-c3ccccc3)cc2c1` [Example 27, 2-((2-phenyl-7-((tetrahydro-2H-pyran-4-yl)amino)-1H-indol-5-yl)methoxy)ethan-1-ol], for which the EC50 in [1] was at most 100 nM; in data set [2] it was at most 100 nM; in [3], at most 100 nM; in data set [4], at most 300 nM; in data set [5], at most 100 nM; in [6], at most 100 nM. Besides, the concentration giving a half-maximal response (EC50) in data set [7] was at most 100 nM; in data set [8], at most 100 nM; in [9] it was 100 to 1000 nM. Besides, the peak concentration (Cmax) (commonly the maximum level reached in the sampled fluid or tissue) in [10] (mouse, plasma) amounted to 4440 ng/mL. Further, the Tmax – broadly, the time from dosing to the highest level – in data set [10] (mouse, plasma) amounted to 1 h. In [10] (mouse, plasma), the half-life – broadly, the time in which the quantity being followed falls by half – is 2.83 h. The AUC(0-inf) in [10] (mouse, plasma, read-out: area under the plasma concentration-time curve (AUCinf)) worked out at 25100 ng·h/mL. In data set [10] (mouse, plasma, 0.5 hr), the concentration at 0.5 h was determined as 3830 ng/mL. For the same compound, the concentration at 1 h in data set [10] (mouse, plasma, 1 hr) was 4440 ng/mL. This compound also gave a concentration at 2 h in data set [10] (mouse, plasma, 2 hr) of 3780 ng/mL. This compound had a concentration at 4 h in [10] (mouse, plasma, 4 hr) of 2800 ng/mL. The compound further came in with a concentration at 8 h in data set [10] (mouse, plasma, 8 hr) of 1080 ng/mL. Further, the concentration at 24 h in data set [10] (mouse, plasma, 24 hr) stood at 1 ng/mL. In [10], the “exposure (AUCinf) relative to the comparative example compound” value is reported as “approximately 5 times”. For the same compound, the “half-life relative to the comparative example compound” value in data set [10] is on record as “approximately 2 times”. For the same compound, the “maximum plasma concentration (Cmax) relative to the comparative example compound” value in [10] is “approximately 2 times”. Further, the AUCinf in [10] (plasma) is given as 25,115 ng · hr/mL.
Regarding `CC1(O)CCC(OCc2cc(NC3CCOCC3)c3[nH]c(-c4ccccc4)cc3c2)CC1` (centres unmarked) [Example 36, 1-methyl-4-((2-phenyl-7-((tetrahydro-2H-pyran-4-yl)amino)-1H-indol-5-yl)methoxy)cyclohexan-1-ol], the concentration for a half-maximal effect (EC50) in data set [1] was 100 to 1000 nM; in [2], at most 100 nM; in data set [3], at most 100 nM; in data set [4] it was at most 300 nM; in data set [5] it was 100 to 1000 nM; in data set [6] it was at most 100 nM. Further, the 50% effective concentration (EC50) was at most 100 nM in data set [7], 100 to 1000 nM in [8] and 100 to 1000 nM in data set [9].
As for `FC(F)COCc1cc(NC2CCOCC2)c2[nH]c(-c3ccccc3)cc2c1` [Example 40, 5-((2,2-difluoroethoxy)methyl)-2-phenyl-N-(tetrahydro-2H-pyran-4-yl)-1H-indol-7-amine], the EC50 is at most 100 nM in data set [1]; at most 100 nM in [2]; at most 100 nM in data set [3]; at most 300 nM in data set [4]; at most 100 nM in data set [5]; at most 100 nM in data set [6]. Besides, the concentration for a half-maximal effect (EC50) in data set [7] was at most 100 nM; in data set [8] it was 100 to 1000 nM; in [9], at most 100 nM.
Consider `c1ccc(-c2cc3cc(COCCN4CCOCC4)cc(NC4CCCC4)c3[nH]2)cc1` [Example 41, N-cyclopentyl-5-((2-morpholinoethoxy)methyl)-2-phenyl-1H-indol-7-amine], for which the concentration for a half-maximal effect (EC50) in data set [1] was at most 100 nM; in [2], at most 100 nM; in data set [3], at most 100 nM; in data set [4] it was at most 300 nM; in data set [5], at most 100 nM; in data set [6], at most 100 nM. The EC50 in data set [7] is at most 100 nM; in data set [8], 100 to 1000 nM; in data set [9] it was at most 100 nM.
